Measurements as given in ChEMBL document CHEMBL1201862, “PubChem BioAssay data set” (2004).
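Grown in 96-well plates, cells were treated for 48 hours with each compound at five concentrations. Insufficient inhibition: endpoint recorded as highest concentration tested. At the GI50, growth is halved.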 The source made the active and inactive calls. Rule as the data show it: active = GI50 up to about 1.1 µM and inactive = higher.

Tests used:
Test in all cases: NCI tumour cell line growth inhibition, 48 h
786-0 = tested on: 786-0
A498 = tested on: A498
A549 = tested on: A549
CAKI-1 = tested on: CAKI-1
DU-145 = tested on: DU-145
HCT-116 = tested on: HCT-116
HOP-92 = tested on: HOP-92
KM12 = tested on: KM12
Malme-3M = tested on: Malme-3M
NCI-H226 = tested on: NCI-H226
NCI-H522 = tested on: NCI-H522
OVCAR-5 = tested on: OVCAR-5
RXF 393 = tested on: RXF 393
SF-268 = tested on: SF-268
SK-OV-3 = tested on: SK-OV-3
SNB-75 = tested on: SNB-75
UACC-62 = tested on: UACC-62
UO-31 = tested on: UO-31
MOLT-4 = tested on: MOLT-4
OVCAR-3 = tested on: OVCAR-3

Measured: GI50

C/C(=N\N=C(\N)SB(F)F)c1ccc2ccccc2c1
inactive: 786-0 > 100 µM | A498 > 100 µM | A549 > 100 µM | CAKI-1 > 100 µM | DU-145 > 100 µM | HCT-116 > 100 µM | HOP-92 > 100 µM | KM12 > 100 µM | Malme-3M > 100 µM | NCI-H226 > 100 µM | NCI-H522 25.6 µM | OVCAR-5 > 100 µM | RXF 393 62.8 µM | SF-268 86.5 µM | SK-OV-3 > 100 µM | SNB-75 > 100 µM | UACC-62 > 100 µM | UO-31 > 100 µM

O=C(/C=C/c1ccc(/C=C/C(=O)c2ccc(O)cc2)cc1)c1ccc(O)cc1
inactive: 786-0 74 µM | A498 > 100 µM | A549 > 100 µM | CAKI-1 > 100 µM | DU-145 > 100 µM | HCT-116 > 100 µM | HOP-92 > 100 µM | KM12 > 100 µM | MOLT-4 > 100 µM | NCI-H226 > 100 µM | NCI-H522 > 10 µM | OVCAR-3 > 100 µM | OVCAR-5 > 100 µM | RXF 393 > 100 µM | SF-268 > 100 µM | SNB-75 > 100 µM | UACC-62 > 100 µM | UO-31 > 100 µM

NS(=O)(=O)c1ccc(NC(=S)N/C=C2\C(=O)Nc3ccccc3C2=O)cc1
inactive: 786-0 > 100 µM | A549 > 100 µM | CAKI-1 20.1 µM | DU-145 > 100 µM | HCT-116 > 100 µM | HOP-92 > 100 µM | KM12 > 100 µM | MOLT-4 > 100 µM | NCI-H226 > 100 µM | NCI-H522 > 100 µM | OVCAR-3 > 100 µM | OVCAR-5 > 100 µM | RXF 393 > 100 µM | SF-268 > 100 µM | SK-OV-3 > 100 µM | SNB-75 > 100 µM | UACC-62 > 100 µM | UO-31 > 100 µM

N#CCCN(CCC#N)c1ccc(/C=C2\N=C(c3ccccc3)N(c3ccccn3)C2=O)cc1
inactive: 786-0 > 100 µM | A498 > 100 µM | A549 > 100 µM | CAKI-1 > 100 µM | DU-145 > 100 µM | HCT-116 > 100 µM | HOP-92 > 100 µM | KM12 > 100 µM | MOLT-4 > 100 µM | Malme-3M > 100 µM | NCI-H226 > 100 µM | OVCAR-3 > 100 µM | OVCAR-5 > 100 µM | RXF 393 > 100 µM | SF-268 > 100 µM | SK-OV-3 > 100 µM | UACC-62 > 100 µM | UO-31 > 100 µM

O=c1[nH]c2nc3ccccc3c(=O)n2/c1=C/c1ccc(O)cc1
inactive: 786-0 34.8 µM | A549 40.6 µM | CAKI-1 43.3 µM | DU-145 30.8 µM | HCT-116 36.8 µM | HOP-92 49.5 µM | KM12 29.6 µM | MOLT-4 31.7 µM | Malme-3M 39.1 µM | NCI-H226 38.7 µM | NCI-H522 23.2 µM | OVCAR-3 27 µM | OVCAR-5 > 100 µM | RXF 393 40.2 µM | SF-268 25.4 µM | SK-OV-3 > 100 µM | SNB-75 23.8 µM | UACC-62 27 µM | UO-31 53.7 µM

CC1=NN(c2nc(N)nc(/C(C#N)=C\c3cccc([N+](=O)[O-])c3)n2)C(C)(C)C1
inactive: 786-0 6.58 µM | A498 > 23 µM | A549 12.3 µM | CAKI-1 12.4 µM | DU-145 12.7 µM | HCT-116 10.4 µM | HOP-92 > 24.4 µM | KM12 14.9 µM | MOLT-4 34.6 µM | Malme-3M 16.9 µM | NCI-H522 2.92 µM | OVCAR-3 6.76 µM | OVCAR-5 24.4 µM | RXF 393 5.19 µM | SF-268 10.7 µM | SK-OV-3 11.9 µM | SNB-75 6.68 µM | UACC-62 19.6 µM | UO-31 5.32 µM

Nc1nccc(NCC2(CO)CCC2)n1
inactive: 786-0 > 100 µM | A498 > 100 µM | A549 > 100 µM | CAKI-1 63.4 µM | DU-145 > 100 µM | HCT-116 > 100 µM | HOP-92 > 100 µM | KM12 > 100 µM | MOLT-4 > 100 µM | Malme-3M > 100 µM | NCI-H226 > 100 µM | NCI-H522 > 100 µM | OVCAR-3 > 100 µM | OVCAR-5 > 100 µM | RXF 393 > 100 µM | SF-268 > 100 µM | SNB-75 > 100 µM | UACC-62 > 100 µM | UO-31 > 100 µM

CC1(C)C=C(/C=N/Nc2ccc(Br)cc2)C(C#N)=C(O)C1(C#N)C#N
inactive: 786-0 47.2 µM | A549 39.2 µM | CAKI-1 36.1 µM | DU-145 66.7 µM | HCT-116 32.2 µM | HOP-92 22.4 µM | KM12 29.9 µM | MOLT-4 29.2 µM | Malme-3M 89.7 µM | NCI-H226 88.3 µM | NCI-H522 75.9 µM | OVCAR-3 31.9 µM | OVCAR-5 > 100 µM | RXF 393 33.8 µM | SF-268 40.9 µM | SK-OV-3 57.8 µM | SNB-75 66.4 µM | UACC-62 38.7 µM | UO-31 22.8 µM

NC(=O)C(c1ccccc1)N1OC2C(=O)N(c3ccccc3)C(=O)C2C1c1c2ccccc2c(Cl)c2ccccc12 (stereo not drawn)
inactive: 786-0 > 100 µM | A549 > 100 µM | CAKI-1 > 100 µM | DU-145 > 100 µM | HCT-116 > 100 µM | HOP-92 > 100 µM | KM12 > 100 µM | MOLT-4 > 100 µM | Malme-3M > 100 µM | NCI-H226 > 100 µM | NCI-H522 > 100 µM | OVCAR-3 > 100 µM | OVCAR-5 > 100 µM | RXF 393 > 100 µM | SF-268 > 100 µM | SK-OV-3 > 100 µM | SNB-75 > 100 µM | UACC-62 > 100 µM | UO-31 > 100 µM

O=[N+]([O-])c1ccccc1S(=O)(=O)c1cc(Cl)cc2c1NCCC2
inactive: 786-0 80 µM | A498 > 100 µM | A549 65.8 µM | CAKI-1 60.4 µM | DU-145 94.6 µM | HCT-116 41.7 µM | HOP-92 91.2 µM | KM12 85.9 µM | MOLT-4 31.8 µM | Malme-3M 25.8 µM | NCI-H226 45.5 µM | OVCAR-3 > 100 µM | OVCAR-5 > 100 µM | RXF 393 63 µM | SF-268 > 100 µM | SK-OV-3 > 100 µM | SNB-75 43.4 µM | UACC-62 38.5 µM | UO-31 50.2 µM

Cc1cc2ccc(N)nc2nc1O
inactive: 786-0 > 100 µM | A549 > 100 µM | CAKI-1 > 100 µM | DU-145 > 100 µM | HCT-116 > 100 µM | HOP-92 > 100 µM | KM12 > 100 µM | Malme-3M > 100 µM | NCI-H226 51.6 µM | NCI-H522 49.2 µM | OVCAR-5 > 100 µM | RXF 393 > 100 µM | SF-268 92.9 µM | SK-OV-3 > 100 µM | SNB-75 > 100 µM | UACC-62 > 100 µM | UO-31 > 100 µM
